According to US6818445B2 (Synaptic Pharmaceutical Corporation, priority 1994, dated 2004):

Legend:
human Y2 receptor = biological target: T1, human Y2 receptor (Homo sapiens, UniProt P49146); format: binding; conditions: read-out: Binding Affinity (Ki (nM) vs. ^125I-PYY) Human Receptor Y2; Table 14
T1 sequence (P49146 1-381): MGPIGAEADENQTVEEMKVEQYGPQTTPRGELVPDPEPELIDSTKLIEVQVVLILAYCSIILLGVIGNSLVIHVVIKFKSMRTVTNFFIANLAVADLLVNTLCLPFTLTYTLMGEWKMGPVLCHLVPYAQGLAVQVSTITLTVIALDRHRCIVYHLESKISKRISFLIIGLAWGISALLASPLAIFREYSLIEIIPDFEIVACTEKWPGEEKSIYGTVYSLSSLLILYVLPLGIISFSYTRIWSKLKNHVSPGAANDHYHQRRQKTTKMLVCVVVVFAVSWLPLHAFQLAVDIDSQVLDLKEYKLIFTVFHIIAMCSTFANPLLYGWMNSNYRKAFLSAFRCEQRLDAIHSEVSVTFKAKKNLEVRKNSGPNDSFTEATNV

human Y4 receptor = human Y4 receptor (Homo sapiens, UniProt P50391); format: binding; conditions: read-out: Binding Affinity (Ki (nM) vs. ^125I-PYY) Human Receptor Y4; Table 14
Sequence of human Y4 receptor (P50391 whole entry): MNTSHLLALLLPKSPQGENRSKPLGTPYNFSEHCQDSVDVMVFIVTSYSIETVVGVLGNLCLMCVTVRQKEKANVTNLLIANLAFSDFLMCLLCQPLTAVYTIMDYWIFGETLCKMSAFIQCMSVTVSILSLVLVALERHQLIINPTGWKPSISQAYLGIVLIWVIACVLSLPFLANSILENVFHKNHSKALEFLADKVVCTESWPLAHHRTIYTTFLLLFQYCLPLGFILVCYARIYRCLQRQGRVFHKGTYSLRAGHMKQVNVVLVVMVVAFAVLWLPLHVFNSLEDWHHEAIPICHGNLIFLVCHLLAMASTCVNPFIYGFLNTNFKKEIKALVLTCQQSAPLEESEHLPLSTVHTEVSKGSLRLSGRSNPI

human α1d receptor = biological target: T2, human α1d receptor (Homo sapiens, UniProt P25100); test: Binding to cloned human α1d adrenergic receptor
T2 sequence (P25100 1-572): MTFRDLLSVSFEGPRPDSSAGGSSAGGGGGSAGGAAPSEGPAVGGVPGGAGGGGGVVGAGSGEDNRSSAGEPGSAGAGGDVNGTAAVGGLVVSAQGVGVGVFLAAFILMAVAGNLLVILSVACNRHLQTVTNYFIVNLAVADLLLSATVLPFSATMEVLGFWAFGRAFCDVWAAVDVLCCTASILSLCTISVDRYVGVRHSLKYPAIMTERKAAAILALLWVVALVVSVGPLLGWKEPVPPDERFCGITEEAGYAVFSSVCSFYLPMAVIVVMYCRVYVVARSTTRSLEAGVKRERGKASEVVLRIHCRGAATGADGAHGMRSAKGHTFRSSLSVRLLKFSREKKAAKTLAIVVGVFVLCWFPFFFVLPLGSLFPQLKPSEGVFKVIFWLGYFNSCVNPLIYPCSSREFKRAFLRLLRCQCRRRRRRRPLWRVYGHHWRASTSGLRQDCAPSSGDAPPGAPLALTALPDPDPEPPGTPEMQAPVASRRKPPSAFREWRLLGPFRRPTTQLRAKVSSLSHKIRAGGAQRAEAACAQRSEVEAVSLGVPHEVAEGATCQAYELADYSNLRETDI

human α1b receptor = biological target: T3, human α1b receptor (Homo sapiens, UniProt P35368); test: Binding to cloned human α1b adrenergic receptor
T3 sequence (P35368 1-520): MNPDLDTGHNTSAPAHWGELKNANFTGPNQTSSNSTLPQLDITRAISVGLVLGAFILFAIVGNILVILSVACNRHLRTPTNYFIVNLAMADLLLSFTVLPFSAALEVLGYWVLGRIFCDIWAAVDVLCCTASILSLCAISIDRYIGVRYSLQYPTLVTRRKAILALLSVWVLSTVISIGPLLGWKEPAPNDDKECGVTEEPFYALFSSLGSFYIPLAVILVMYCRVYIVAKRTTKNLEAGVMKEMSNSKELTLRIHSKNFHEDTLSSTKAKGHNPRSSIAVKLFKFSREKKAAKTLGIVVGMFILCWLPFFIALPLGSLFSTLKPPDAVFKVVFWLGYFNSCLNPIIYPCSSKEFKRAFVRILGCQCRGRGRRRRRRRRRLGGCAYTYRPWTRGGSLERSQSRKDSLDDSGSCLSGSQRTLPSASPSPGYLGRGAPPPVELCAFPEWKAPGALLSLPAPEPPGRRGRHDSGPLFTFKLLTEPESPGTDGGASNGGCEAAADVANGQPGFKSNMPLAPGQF

[1] = tested on: food intake of 24 h food-deprived rats; test: Food intake in food-deprived rats; format: in vivo, rat; conditions: 30 mg/kg i.p. after 24 h food deprivation, percentage of intake compared to control rats
Description: At the end of the equilibration period, food is removed from the animals for 24 hours starting at 8:00 a.m. At the end of the fasting period compound or vehicle may be administered to the animals orally or by injection intraperitoneally or intravenously. After 10-60 min. food is returned to the animals and their food intake is monitored at various time periods during the following 24 hour period. The food intake of animals treated with test compound may be calculated as a percentage of the food intake of control animals (i.e., animals treated with vehicle). Alternatively, food intake for each group of animals subjected to a particular experimental condition may be expressed as the mean±S.E.M.
Therefore, the Y5 antagonists of Table 14 were administered by intraperitoneal injection at a dose of 30 mg/kg to conscious rats following a 24 h food deprivation. […] Measurements were performed two hours after administration of the test compound.

human 5-HT7 receptor = human 5-HT7 receptor (Homo sapiens, UniProt P34969); test: Binding to human 5-HT7 receptor; conditions: cloned human receptor
Sequence of human 5-HT7 receptor (P34969 1-445 isoform P34969-2): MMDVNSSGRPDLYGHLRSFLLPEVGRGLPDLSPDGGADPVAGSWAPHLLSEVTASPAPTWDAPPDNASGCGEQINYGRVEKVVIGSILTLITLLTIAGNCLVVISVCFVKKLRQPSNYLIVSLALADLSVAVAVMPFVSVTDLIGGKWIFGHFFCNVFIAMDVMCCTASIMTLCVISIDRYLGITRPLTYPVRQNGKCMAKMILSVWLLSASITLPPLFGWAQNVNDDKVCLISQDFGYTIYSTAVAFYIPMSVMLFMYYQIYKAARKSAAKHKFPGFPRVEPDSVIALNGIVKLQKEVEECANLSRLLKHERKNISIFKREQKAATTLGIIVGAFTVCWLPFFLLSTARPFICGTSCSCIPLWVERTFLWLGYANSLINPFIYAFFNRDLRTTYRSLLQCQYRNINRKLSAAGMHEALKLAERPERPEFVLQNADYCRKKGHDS

human Y1 receptor = biological target: T4, human Y1 receptor (Homo sapiens, UniProt P25929); conditions: read-out: Binding Affinity (Ki (nM) vs. ^125I-PYY) Human Receptor Y1; Table 14
T4 sequence (P25929 1-384): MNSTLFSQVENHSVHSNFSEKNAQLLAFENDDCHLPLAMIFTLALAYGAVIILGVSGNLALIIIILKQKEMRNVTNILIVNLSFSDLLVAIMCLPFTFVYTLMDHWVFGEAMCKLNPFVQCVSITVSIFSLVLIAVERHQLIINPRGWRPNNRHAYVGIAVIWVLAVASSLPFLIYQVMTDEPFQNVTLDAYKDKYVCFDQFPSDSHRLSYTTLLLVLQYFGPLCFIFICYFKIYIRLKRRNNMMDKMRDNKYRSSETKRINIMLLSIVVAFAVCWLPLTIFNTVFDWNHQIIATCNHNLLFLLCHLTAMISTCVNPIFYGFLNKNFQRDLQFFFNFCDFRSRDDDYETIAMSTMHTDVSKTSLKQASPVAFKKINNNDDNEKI

human 5HT1Dα receptor = human 5HT1Dα receptor (Homo sapiens, UniProt P28221); test: Binding to human 5HT1Dα receptor, [3H]serotonin; conditions: cloned human receptor
Sequence of human 5HT1Dα receptor (P28221 whole entry): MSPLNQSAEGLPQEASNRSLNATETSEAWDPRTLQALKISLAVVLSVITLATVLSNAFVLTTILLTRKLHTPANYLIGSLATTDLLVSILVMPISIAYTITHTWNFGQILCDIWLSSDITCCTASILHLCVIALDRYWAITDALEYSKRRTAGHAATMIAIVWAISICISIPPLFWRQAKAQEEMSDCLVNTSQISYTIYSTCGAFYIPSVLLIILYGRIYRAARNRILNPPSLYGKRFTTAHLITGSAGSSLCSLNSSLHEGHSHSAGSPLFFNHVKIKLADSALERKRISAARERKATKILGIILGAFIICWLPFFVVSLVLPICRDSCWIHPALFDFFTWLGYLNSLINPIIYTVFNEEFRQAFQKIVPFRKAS

human α1a receptor = biological target: T5, human α1a receptor (Homo sapiens, UniProt P35348); test: Binding to cloned human α1a adrenergic receptor
T5 sequence (P35348 1-466): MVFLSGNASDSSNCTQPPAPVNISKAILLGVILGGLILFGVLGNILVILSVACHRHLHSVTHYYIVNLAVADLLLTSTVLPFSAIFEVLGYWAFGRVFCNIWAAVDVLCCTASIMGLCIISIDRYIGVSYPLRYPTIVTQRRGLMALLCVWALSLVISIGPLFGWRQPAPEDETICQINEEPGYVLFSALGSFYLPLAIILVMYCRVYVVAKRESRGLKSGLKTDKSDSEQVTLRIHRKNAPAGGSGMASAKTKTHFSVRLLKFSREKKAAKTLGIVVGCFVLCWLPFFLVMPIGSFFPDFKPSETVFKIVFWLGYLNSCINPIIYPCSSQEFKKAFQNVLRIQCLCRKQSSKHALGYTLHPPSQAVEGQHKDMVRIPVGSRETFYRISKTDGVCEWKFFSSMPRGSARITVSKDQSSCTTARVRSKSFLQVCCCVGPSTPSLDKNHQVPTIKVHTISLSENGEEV

Compound | Ki (human Y2 receptor) [nM] | Ki (human Y4 receptor) [nM] | Receptor (pKi) α1d (human α1d receptor) | Receptor (pKi) α1b (human α1b receptor) | Two-hour food intake of food-deprived rats, Mean (%) [1] [%] | Receptor (pKi) 5HT7 (human 5-HT7 receptor) | Ki (human Y1 receptor) [nM] | Receptor (pKi) 5HT1Dα (human 5HT1Dα receptor) | Receptor (pKi) α1a (human α1a receptor)
Cl.O=[N+]([O-])c1ccccc1S(=O)(=O)NC[C@H]1CC[C@H](CNCC2CCc3ccccc3C2)CC1 (stereo partly drawn) [Compound 20] | 7760 | 20400 | 7.01 | 7.22 | 35 | 6.37 | 16000 | 5.94 | 7.72
Cl.Cl.Nc1ccccc1S(=O)(=O)NCC1CCC(CNCC2CCc3ccccc3C2)CC1 (stereo not drawn) [Compound 22] | 7570 | 27500 | 6.80 | 6.98 | 55 | 6.39 | 17200 | 5.98 | 7.34
Cl.O=S(=O)(NC[C@H]1CC[C@H](CNCC2CCc3ccccc3C2)CC1)c1cccc2ccccc12 (stereo partly drawn) [Compound 19] | 955 | 11700 | 6.90 | 7.35 | 36 | 6.42 | 3550 | 6.04 | 7.47
